pIC50: −log10 of the molar value.
Columns and labels:
[1] = molecular target: T1, P2X7 (Homo sapiens, UniProt Q99572); assay: IL-1β release assay in THP-1 cells (sandwich ELISA, BzATP-stimulated); assay type: cell-based; set-up: endogenous in cells; host or cells: THP-1 cells (PMA-differentiated, LPS-primed); conditions: LPS primed, 0.8 mM BzATP, mature IL-1β release, read-out: hTHP-1/IL-ib IC50
T1 sequence (Q99572 1-595): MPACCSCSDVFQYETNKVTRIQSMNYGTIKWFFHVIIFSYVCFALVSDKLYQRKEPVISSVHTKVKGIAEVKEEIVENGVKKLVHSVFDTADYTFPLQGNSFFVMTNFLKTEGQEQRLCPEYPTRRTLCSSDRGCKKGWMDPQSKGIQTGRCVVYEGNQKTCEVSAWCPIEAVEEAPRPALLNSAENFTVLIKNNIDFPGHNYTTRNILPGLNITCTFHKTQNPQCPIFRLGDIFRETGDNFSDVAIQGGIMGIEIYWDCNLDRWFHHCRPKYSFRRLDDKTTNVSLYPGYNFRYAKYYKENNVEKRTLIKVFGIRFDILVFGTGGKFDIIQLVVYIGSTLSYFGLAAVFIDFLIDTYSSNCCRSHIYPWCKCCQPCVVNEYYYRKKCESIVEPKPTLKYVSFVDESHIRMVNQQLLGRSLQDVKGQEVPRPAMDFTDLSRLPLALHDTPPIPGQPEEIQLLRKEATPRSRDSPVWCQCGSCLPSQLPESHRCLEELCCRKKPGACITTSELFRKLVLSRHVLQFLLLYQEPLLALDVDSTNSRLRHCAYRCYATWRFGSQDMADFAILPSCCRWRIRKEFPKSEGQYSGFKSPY
Protocol: IL-1β release assay: The activation of P2X7 by ATP leads to a fast transient activation of cells resulting in influx of Ca^2+ followed by conversion of pro-IL-1β to active IL-1β. The functional activity of P2X7 compounds was measured by the release of mature IL-1β in the culture medium of THP-1 cells, detected by sandwich ELISA. Cells were maintained in complete growth medium (RPMI 1640+10% HI-FCS+2 mM L-glutamine+1× PS). […] THP-1 cells were harvested from the flask in 50 ml by centrifugation for 3 min at 100 g. The cells were resuspended to 2×10^5 cells/ml in medium supplemented with 0.5 μM PMA and incubated. The cells were washed and resuspended to 1.5×10^5 cells/ml in medium complemented with 10 ng/ml LPS, and the cells were primed for 4 h at 37° C., 5% CO2. After addition of 20 μL of prediluted test compounds, blank, standard and control reagents, cells were incubated for a further 20 min at 37° C. and stimulated with 0.8 mM BzATP for 30 minutes. The cells were centrifuged, supernatant was collected and the presence of mature IL-1β was detected using Dual human IL-1b kit following manufacturer's instruction. The tetrahydrobenzodiazepine analogs effectively modulated the activity of P2X7 in the cells as measured by the levels of pro-inflammatory cytokine IL-1β, which is released by the activation of P2X7 receptor.

[2] = molecular target: T1, P2X7; assay: Pore permeation assay (YO PRO dye uptake, BzATP-induced); assay type: cell-based; set-up: expressed in transfected cells; host or cells: HEK293; conditions: HEK293 transfected with human P2X7 receptor, BzATP 10 uM, read-out: hP2X7 IC50
Protocol: Agonist-induced pore formation was determined by measuring cellular uptake of YO PRO fluorescence dye in HEK293 transfected with human P2X7 receptor. A HEK293 cell over expressing human P2X7 was harvested using HQTase reagent to detach the cells from T75 cm flask. The harvested cells are centrifuged @1200 rpm for 5 min at room temperature. The viability of cells was determined by Trypan blue dye and the cells are plated @10,000 cell/well in 50 ul volume in a 384W BD Poly lysine coated plate and incubated overnight at 37 C. After overnight incubation, the culture medium was replaced with 35 ul/well assay buffer (5 mM KCl, 0.1 mM CaCl2, 5 mM Glucose, 10 mM HEPES buffer pH7.4 containing 125 mM NaCl. The serial dilution of compounds was performed using Bravo liquid handling instrument and the compounds were added using Bravo to the cell assay plate starting at 2.5 uM with three dilutions for 10 points. The positive control inhibitor compound was added to column 23. The plate was shaken slowly on a plate shaker for 10 seconds. The cells were incubated with the compound for 20 minutes at room temperature. After the incubation period, YO PRO dye (1 uM) along with BzATP (10 uM) were added to cells at 10 ul/well. The plate was centrifuged at 1000 rpm for 5 seconds and incubated at room temperature for 30 minutes. The uptake of YO PRO dye into the cells was measured using Envision Fluorescence plate reader instrument (Perkin Elmer).

Structure (SMILES) | pIC50 [1] | pIC50 [2]
CCOCCc1cc(C(=O)NCC2(O)CCCC(F)(F)C2)c2c(Cl)cccn12 (stereo not shown) [Compound 70, 8-Chloro-3-(2-ethoxy-ethyl)-indolizine-1-carboxylic Acid (3,3-difluoro-1-hydroxy-cyclohexylmethyl)-amide] | 7.00 to 8.00 | 7.00 to 8.00
[2H]C([2H])([2H])OCCc1cc(C(=O)NCC2CCC(F)(F)CC2)c2c(Cl)cccn12 [Compound 72] | 7.00 to 8.00 | 7.00 to 8.00
COCCc1cc(C(=O)NCC2(O)CCCC(F)(F)C2)c2c(C(F)(F)F)cccn12 (stereo not shown) [Compound 60, 3-(2-Methoxy-ethyl)-8-trifluoro methylindolizine-1-carboxylic Acid (3,3-difluoro-1-hydroxy-cyclohexylmethyl)-amide] | 7.00 to 8.00 | 6.30 to 7.00
O=C(NCC1CCC(F)(F)CC1)c1cc(C2=CCOC2)n2cccc(Cl)c12 [Compound 21, 8-chloro-N-((4,4-difluorocyclohexyl)methyl)-3-(2,5-dihydrofuran-3-yl) indolizine-1-carboxamide] | 6.30 to 7.00 | 6.30 to 7.00
COCCc1cc(C(=O)NCC2(O)CCCC(C)(C)C2)c2c(Cl)cccn12 (stereo not shown) [Compound 10, 8-chloro-N-((1-hydroxy-3,3-dimethylcyclohexyl)methyl)-3-(2-methoxyethyl) indolizine-1-carboxamide] | 7.00 to 8.00 | 7.00 to 8.00
O=C(NCC1(O)CCC(F)(F)CC1)c1cc(C2CCC2)n2cccc(Cl)c12 [Compound 12, 8-chloro-3-cyclobutyl-N-((4,4-difluoro-1-hydroxycyclohexyl)methyl) indolizine-1-carboxamide] | 6.30 to 7.00 | 7.00 to 8.00
CCOCCc1cc(C(=O)NC[C@@]2(O)CCC[C@@H](C)C2)c2c(Cl)cccn12 [Compound 73] | 7.00 to 8.00 | 7.00 to 8.00
COCCc1cc(C(=O)NCC2CCCCC2)c2c(Cl)cccn12 [Compound 8, 8-chloro-N-(cyclohexylmethyl)-3-(2-methoxyethyl)-indolizine-1-carboxamide] | 6.30 to 7.00 | 7.00 to 8.00
COCCc1cc(C(=O)NCC2(O)CCC(F)(F)C(C)C2)c2c(Cl)cccn12 (stereo not shown) [Compound 43, 8-chloro-N-((4,4-difluoro-1-hydroxy-3-methylcyclohexyl)methyl)-3-(2-methoxyethyl)indolizine-1-carboxamide] | 6.30 to 7.00 | 7.00 to 8.00
COCCc1cc(C(=O)NC[C@]2(O)CCCC(F)(F)C2)c2c(Cl)cccn12 [Compound 64, 8-Chloro-3-(2-methoxy-ethyl)-indolizine-1-carboxylic Acid ((S)-3,3-difluoro-1-hydroxy-cyclohexylmethyl)-amide] | 6.30 to 7.00 | 7.00 to 8.00
C[C@@H]1CCC[C@](O)(CNC(=O)c2cc(C3CCC3)n3cccc(Cl)c23)C1 [Compound 71, 8-chloro-3-cyclobutyl-N-(((1R,3R)-1-hydroxy-3-methylcyclohexyl)methyl) indolizine-1-carboxamide] | 7.00 to 8.00 | 7.00 to 8.00
O=C(NCC1CCCCC1)c1cc(CCO)n2cccc(Cl)c12 [Compound 15, 8-chloro-N-(cyclohexylmethyl)-3-(2-hydroxyethyl)indolizine-1-carboxamide] | 6.30 to 7.00 | 6.30 to 7.00
O=C(NCC1CCCC(F)(F)C1)c1cc(C2CCOC2)n2cccc(Cl)c12 (stereo not shown) [Compound 39, 8-Chloro-3-(tetrahydro-furan-3-yl)-indolizine-1-carboxylic Acid (3,3-difluoro-cyclohexyl methyl)-amide] | 6.30 to 7.00 | 7.00 to 8.00
CC1CC(CNC(=O)c2cc(CCO)n3cccc(Cl)c23)CC(F)(F)C1 (stereo not shown) [Compound 36, 8-chloro-N-((3,3-difluoro-5-methylcyclohexyl)methyl)-3-(2-hydroxyethyl)indolizine-1-carboxamide] | 7.00 to 8.00 | 7.00 to 8.00
COCCc1cc(C(=O)NCC2(O)CCCC(F)(F)C2)c2c(C)cccn12 (stereo not shown) [Compound 57, 3-(2-Methoxy-ethyl)-8-methyl-indolizine-1-carboxylic Acid (3,3-difluoro-1-hydroxy-cyclohexylmethyl)-amide] | 6.30 to 7.00 | 6.30 to 7.00
O=C(NCC1(O)CCC(F)(F)CC1)c1cc(C2CCCO2)n2cccc(Cl)c12 (stereo not shown) [Compound 48, 8-Chloro-3-(tetrahydro-furan-2-yl)-indolizine-1-carboxylic Acid (4,4-difluoro-1-hydroxycyclohexyl methyl)-amide] | 7.00 to 8.00 | 7.00 to 8.00
COCCc1cc(C(=O)NC[C@@]2(O)CCC[C@@H](C)C2)c2c(C(F)(F)F)cccn12 [Compound 22, 3-(2-Methoxy-ethyl)-8-trifluoromethyl-indolizine-1-carboxylic Acid ((1R,3R)-1-hydroxy-3-methyl-cyclohexylmethyl)-amide] | 7.00 to 8.00 | 7.00 to 8.00
COCCc1cc(C(=O)NCC2CCC(F)(F)CC2)c2c(Cl)cccn12 [Compound 37, 8-chloro-N-((4,4-difluorocyclohexyl)methyl)-3-(2-methoxyethyl) indolizine-1-carboxamide] | 7.00 to 8.00 | 7.00 to 8.00
COCCc1cc(C(=O)NCC2CCC(F)(F)C(C)C2)c2c(Cl)cccn12 (stereo not shown) [Compound 11, 8-chloro-N-((4,4-difluoro-3-methylcyclohexyl)methyl)-3-(2-methoxyethyl) indolizine-1-carboxamide] | 7.00 to 8.00 | > 8.00
O=C(NC[C@@]1(O)CCCC(F)(F)C1)c1cc(C2CCOC2)n2cccc(Cl)c12 (stereo partly drawn) [Compound 66, 8-chloro-N—(((R)-3,3-difluoro-1-hydroxycyclohexyl)methyl)-3-(tetrahydrofuran-3-yl)indolizine-1-carboxamide] | 6.30 to 7.00 | 7.00 to 8.00
COCCc1cc(C(=O)NC[C@@]2(O)CCC[C@@H](C)C2)c2c(C)cccn12 [Compound 16, 3-(2-Methoxy-ethyl)-8-methyl-indolizine-1-carboxylic Acid ((1R,3R)-1-hydroxy-3-methylcyclohexylmethyl)-amide] | 6.30 to 7.00 | 7.00 to 8.00
CCOCCc1cc(C(=O)NCC2(O)CCC(F)(F)CC2)c2c(Cl)cccn12 [Compound 69, 8-Chloro-3-(2-ethoxy-ethyl)-indolizine-1-carboxylic Acid (4,4-difluoro-1-hydroxy-cyclohexylmethyl)-amide] | 6.30 to 7.00 | 6.30 to 7.00
COCCc1cc(C(=O)NCC2CCCC(F)(F)C2)c2c(Cl)cccn12 (stereo not shown) [Compound 31, 8-chloro-N-((3,3-difluorocyclohexyl)methyl)-3-(2-methoxyethyl)indolizine-1-carboxamide] | 7.00 to 8.00 | 7.00 to 8.00
